According to patent publication US20080319065A1, “Systemic and Intrathecal Effects of a Novel Series of Phospholipase A2 Inhibitors on Hyperalgesia and Spinal Pge2 Release” (The Regents of the University of California, priority 2005, published 2008):
“Also recorded” adds a separate entry of the source.

Columns and labels:
[1] = target: T1, Group VIA iPLA2 (GVIA PLA2) (Homo sapiens, UniProt O60733); assay: In vitro Group VIA iPLA2 mixed micelle assay; assay type: biochemical; details: for Inhibition of GVIA PLA2: at highest dose; for iPLA2 inh, XI(50): Table 3; for inhibition at 0.091 mole fraction: read-out: iPLA2 inh, percent inhibition
T1 sequence (O60733 1-806): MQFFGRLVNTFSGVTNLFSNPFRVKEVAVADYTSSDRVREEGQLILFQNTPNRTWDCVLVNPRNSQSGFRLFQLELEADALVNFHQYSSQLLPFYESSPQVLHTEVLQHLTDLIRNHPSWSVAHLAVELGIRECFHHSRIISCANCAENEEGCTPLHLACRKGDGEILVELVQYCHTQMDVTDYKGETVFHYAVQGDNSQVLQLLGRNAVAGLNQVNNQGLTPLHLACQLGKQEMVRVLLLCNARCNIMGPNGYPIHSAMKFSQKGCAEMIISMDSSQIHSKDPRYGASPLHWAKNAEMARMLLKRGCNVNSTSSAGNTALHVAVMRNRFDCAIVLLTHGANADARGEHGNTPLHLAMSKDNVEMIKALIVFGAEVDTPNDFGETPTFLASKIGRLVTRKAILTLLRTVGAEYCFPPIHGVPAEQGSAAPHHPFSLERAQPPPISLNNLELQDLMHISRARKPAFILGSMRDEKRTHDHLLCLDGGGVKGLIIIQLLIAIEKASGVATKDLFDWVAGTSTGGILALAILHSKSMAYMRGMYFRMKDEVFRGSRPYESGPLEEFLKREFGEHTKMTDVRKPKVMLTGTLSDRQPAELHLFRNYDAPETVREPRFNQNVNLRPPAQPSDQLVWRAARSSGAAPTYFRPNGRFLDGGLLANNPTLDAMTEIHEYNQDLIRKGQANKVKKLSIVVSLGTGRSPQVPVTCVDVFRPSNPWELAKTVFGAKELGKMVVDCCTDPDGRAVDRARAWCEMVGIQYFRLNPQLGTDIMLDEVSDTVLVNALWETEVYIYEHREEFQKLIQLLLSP
Description: (§1) Numerous 2-oxoamides were tested for inhibition of PLA2s in in vitro assay systems. The data, summarized in Tables 1a, 1b and 2 are represented as XI(50) values unless otherwise noted. XI(50) is defined as the inhibitor concentration that produced 50% inhibition. XI(50) is used as opposed to the more common IC50 because GIVA and GVIA PLA2 are active at a two-dimensional lipid interface rather than in three-dimensional solution. (Deems, Anal. Biochem., 287:1-16, 2000). The 2-oxoamide inhibitors likely partition to the micelle interface and therefore must be represented as a percentage of surface concentration (mole fraction) as opposed to bulk concentration (molar units). (Kokotos, et al., J. Med. Chem., 45:2891-2893, 2002).
(§2) In vitro Group IV cPLA2 and Group VI iPLA2 assays were done as previously described (Kokotos, et al., supra, 2002). Briefly, 100 μM lipid substrate and 100,000 cpm radiolabeled analog were dried down under N2 and dissolved in assay buffer containing 400 μM Triton X-100 to yield a mixed micelle substrate solution. Inhibitors dissolved in DMSO were added to the reaction tubes and allowed to incubate with substrate for five minutes at 40° C. Pure enzyme was added to yield a final volume of 500 μl, and digestion was carried out at 40° C. for 30 minutes. Reactions were quenched and extracted using the Dole method and products were quantified by liquid scintillation counting. Percent inhibition was determined at a range of inhibitor mole fraction concentrations for XI(50) calculations.

[2] = target: T2, Group IVA cPLA2 (GIVA PLA2) (Homo sapiens, UniProt P47712); assay: In vitro Group IVA cPLA2 mixed micelle assay; assay type: biochemical; details: for Inhibition of GIVA PLA2: at highest dose; for cPLA2 inh, XI(50): Table 3; for inhibition at 0.091 mole fraction: read-out: cPLA2 inh, percent inhibition (converted)
T2 sequence (P47712 1-749): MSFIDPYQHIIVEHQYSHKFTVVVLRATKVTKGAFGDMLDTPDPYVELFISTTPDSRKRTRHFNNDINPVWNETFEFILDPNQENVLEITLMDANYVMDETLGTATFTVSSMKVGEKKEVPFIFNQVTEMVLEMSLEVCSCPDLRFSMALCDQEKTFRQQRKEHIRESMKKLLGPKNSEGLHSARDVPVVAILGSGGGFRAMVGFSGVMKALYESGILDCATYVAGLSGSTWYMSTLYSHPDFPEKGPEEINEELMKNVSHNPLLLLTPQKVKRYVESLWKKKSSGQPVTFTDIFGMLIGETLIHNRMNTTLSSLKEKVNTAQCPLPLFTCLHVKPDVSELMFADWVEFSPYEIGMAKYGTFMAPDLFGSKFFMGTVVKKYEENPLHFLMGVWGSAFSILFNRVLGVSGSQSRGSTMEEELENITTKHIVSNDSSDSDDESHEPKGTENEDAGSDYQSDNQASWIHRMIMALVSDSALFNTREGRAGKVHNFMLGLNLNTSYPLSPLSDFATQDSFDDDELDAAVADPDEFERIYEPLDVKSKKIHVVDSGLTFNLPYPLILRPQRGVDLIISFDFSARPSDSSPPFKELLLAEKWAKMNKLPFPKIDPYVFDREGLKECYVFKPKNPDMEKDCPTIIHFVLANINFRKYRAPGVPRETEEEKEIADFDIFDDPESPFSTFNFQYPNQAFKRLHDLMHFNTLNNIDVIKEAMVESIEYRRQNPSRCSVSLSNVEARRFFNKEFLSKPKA
Description: as §1, §2

GV sPLA2 = target: T3, GV sPLA2 (Homo sapiens, UniProt P39877); assay: GV sPLA2 activity assay; assay type: biochemical; details: for efficacy against sPLA2: at 0.091 mole fraction; for inhibition at 0.091 mole fraction: read-out: sPLA2 inh., percent inhibition
T3 sequence (P39877 21-138): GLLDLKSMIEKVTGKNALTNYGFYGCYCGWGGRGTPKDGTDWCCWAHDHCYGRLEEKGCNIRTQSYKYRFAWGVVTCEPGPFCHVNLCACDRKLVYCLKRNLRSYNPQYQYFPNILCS
Description: GV sPLA2 activity was measured in a similar assay. The final assay buffer was composed of 50 mM Tris-HCl (pH 8.0) and 5 mM CaCl2. Each assay was performed in 500 μL total volume made up of 100 μL of 5× substrate solution (20 μL of 10 mM Triton X-100 and 80 μL assay buffer), 390 μL assay buffer, 10 μL GV sPLA2 solution (1 μL of 40 ng/μL stock and 9 μL assay buffer), and 5 μL of DMSO or 2-oxoamide in DMSO. The 5× substrate solution was prepared by drying down the phospholipids (in organic solvent) with N2. The appropriate volume of 10 mM Triton X-100 was added, heated and vortexed until clear. Then assay buffer was added to make a 5× substrate solution. The final mixed micelles were at 400 μM Triton X-100 and 100 μM DPPC (of which 100,000 cpm of ^14C-DPPC).

Structure (SMILES)	inhibition at 0.091 mole fraction (GV sPLA2) [%]	inhibition at 0.091 mole fraction [2] [%]	inhibition at 0.091 mole fraction [1] [%]	other results
CCC(=O)C(N)=O [AX001]	–	–	–	inhibition of GVIA PLA2 (iPLA2), in words [1]: neither exhibits significant inhibition; Inhibition of GVIA PLA2 [1]: ND^a (negligible inhibition (0-25%) at highest dose); inhibition of GIVA PLA2 (cPLA2), in words [2]: neither exhibits significant inhibition; Inhibition of GIVA PLA2 [2]: ND (negligible inhibition (0-25%) at highest dose)
CCNC(=O)C(=O)CC [AX002]	–	–	–	inhibition of GVIA PLA2 (iPLA2), in words [1]: limited inhibition of GVIA PLA2; Inhibition of GVIA PLA2 [1]: LD^b (limited inhibition (25-50%) at highest dose); inhibition of GIVA PLA2 (cPLA2), in words [2]: no detectable inhibition of GIVA PLA2; Inhibition of GIVA PLA2 [2]: ND (negligible inhibition (0-25%) at highest dose)
CCNC(=O)C(=O)CC [AX009]	–	–	–	inhibition of GVIA PLA2 (iPLA2), in words [1]: limited inhibition of GVIA PLA2; Inhibition of GVIA PLA2 [1]: LD (limited inhibition (25-50%) at highest dose); inhibition of GIVA PLA2 (cPLA2), in words [2]: no detectable inhibition of GIVA PLA2; Inhibition of GIVA PLA2 [2]: ND (negligible inhibition (0-25%) at highest dose)
NC(=O)C(=O)CCCCc1ccccc1 [AX015]	–	–	–	inhibition of GVIA PLA2 (iPLA2), in words [1]: neither exhibits significant inhibition; also recorded: no significant activity; Inhibition of GVIA PLA2 [1]: ND (negligible inhibition (0-25%) at highest dose); efficacy against sPLA2 (GV sPLA2): 45.3%; inhibition of GIVA PLA2 (cPLA2), in words [2]: neither exhibits significant inhibition; also recorded: no significant activity; Inhibition of GIVA PLA2 [2]: ND (negligible inhibition (0-25%) at highest dose)
O=C(O)CCCNC(=O)C(=O)CCCCc1ccccc1 [AX035, 4-(2-Oxo-6-phenyl-hexanoylamino)-butyric acid]	–	–	–	melting point: 60 to 62 °C; Inhibition of GVIA PLA2 [1]: ND (negligible inhibition (0-25%) at highest dose); Inhibition of GIVA PLA2 [2]: ND (negligible inhibition (0-25%) at highest dose)
O=C(O)CCCNC(=O)C(=O)CCCc1ccccc1 [AX036, 4-(2-Oxo-5-phenyl-pentanoylamino)-butyric acid]	–	–	–	melting point: 65 to 67 °C; Inhibition of GVIA PLA2 [1]: ND (negligible inhibition (0-25%) at highest dose); Inhibition of GIVA PLA2 [2]: ND (negligible inhibition (0-25%) at highest dose)
CC/C=C\CC(=O)C(=O)NCCCC(=O)OC(C)(C)C [AX055]	85.3	–	–	iPLA2 inh, XI(50) [1]: XI(50) =0.054 ± .004 mole fraction; cPLA2 inh, XI(50) [2]: XI(50) =0.014 ± .009 mole fraction
CCC[C@@H](CCCCC(=O)OCC)NC(=O)C(=O)CC [AX065]	23.2	61.8	–	iPLA2 inh, XI(50) [1]: XI(50) =0.054 ± .016 mole fraction
CCOCCCCNC(=O)C(=O)CC [AX081]	76.5	–	50.9	cPLA2 inh, XI(50) [2]: XI(50) =0.018 ± .016 mole fraction
CCCCC(=O)CCCNC(=O)C(=O)CC [AX082]	7.4	31.8	–	–
CCOC(=O)CCCNC(=O)C(=O)CCc1ccc(OCC)cc1 [AX090]	51.7	–	67.3	cPLA2 inh, XI(50) [2]: XI(50) =0.050 ± .002 mole fraction
CCOC(=O)c1ccc(NC(=O)C(=O)CC)cc1 [AX091]	66.5	–	14.3	cPLA2 inh, XI(50) [2]: XI(50) =0.029 ± .016 mole fraction
CCC[C@@H](/C=C/C(=O)OCC)NC(=O)C(=O)CC [AX093]	78.3	–	66.5	cPLA2 inh, XI(50) [2]: XI(50) =0.031 ± .011 mole fraction
CCOC(=O)CCCCNC(=O)C(=O)CC [AX102]	47.1	30.6	35.3	–
CCOC(=O)CCNC(=O)C(=O)CC [AX104]	58.8	44	50.6	–
CCC(=O)C(=O)NCCCCC(=O)OC(C)(C)C [AX105]	96.3	73.8	61.7	–
CC/C=C\CC(=O)C(=O)NCCCC(=O)OCC [AX110]	96.6	69.9	52.8	–
CCC(=O)C(=O)NCC(=O)OC(C)(C)C [AX111]	95.9	79.6	53.1	–
CCC(=O)C(=O)NCCC(=O)OC(C)(C)C [AX113]	100	79.2	54	efficacy against sPLA2 (GV sPLA2): about 100%
CCOC(=O)CNC(=O)C(=O)CC [AX114]	99.8	73.7	61.6	–
CCC(=O)C(=O)NCCCC(=O)OCc1ccccc1 [AX116]	57.5	34.8	10.7	–
CCCC[C@H](NC(=O)C(=O)CC)C(=O)NCC(=O)OC(C)(C)C [AX121]	58.5	72	89.6	–
CCCC[C@@H](COCC(=O)OC(C)(C)C)NC(=O)C(=O)CC [AX122]	57.2	43.6	81	–
C=CCOC(=O)CCCNC(=O)C(=O)CC [AX126]	37.9	52.9	63.2	–
CCC[C@H](NC(=O)C(=O)CC)C(=O)NCC(=O)OCC [AX127]	63.1	72.6	93.9	–
CCC[C@@H](COCC(=O)OCC)NC(=O)C(=O)CC [AX128]	80.6	52.3	92.8	–
